Read-outs that look alike come from different tables or passages of the source.
How the values were obtained:
CYP2C19 [1] = target: T1, CYP2C19 (Homo sapiens, UniProt P33261); conditions: Table 4; Yu et al.; cited from earlier work
[2] = rat; Table 4; Yu et al.; cited from earlier work
CYP3A4 [3] = target: T2, CYP3A4 (Homo sapiens, UniProt P08684); conditions: Table 4; Yu et al.; cited from earlier work
[4] = Table 4; Yu et al.; cited from earlier work
CYP2C9 [5] = target: T3, CYP2C9 (Homo sapiens, UniProt P11712); conditions: Table 4; Yu et al.; cited from earlier work
T3 sequence (P11712 whole entry): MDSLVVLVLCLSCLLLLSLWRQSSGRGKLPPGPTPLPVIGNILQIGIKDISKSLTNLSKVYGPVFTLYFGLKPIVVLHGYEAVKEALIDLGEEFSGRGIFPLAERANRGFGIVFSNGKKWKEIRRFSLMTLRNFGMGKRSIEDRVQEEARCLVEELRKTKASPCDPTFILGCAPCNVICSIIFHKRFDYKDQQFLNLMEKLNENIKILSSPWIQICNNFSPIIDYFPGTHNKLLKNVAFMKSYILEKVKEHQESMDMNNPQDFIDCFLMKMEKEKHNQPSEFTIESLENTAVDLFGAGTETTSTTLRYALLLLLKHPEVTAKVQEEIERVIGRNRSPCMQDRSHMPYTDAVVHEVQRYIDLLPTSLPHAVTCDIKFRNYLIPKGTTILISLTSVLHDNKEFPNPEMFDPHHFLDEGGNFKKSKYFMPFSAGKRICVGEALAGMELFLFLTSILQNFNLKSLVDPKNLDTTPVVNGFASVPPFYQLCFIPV

CYP2D6 [6] = target: T4, CYP2D6 (Homo sapiens, UniProt P10635); conditions: Table 4; Yu et al.; cited from earlier work
T4 sequence (P10635 whole entry): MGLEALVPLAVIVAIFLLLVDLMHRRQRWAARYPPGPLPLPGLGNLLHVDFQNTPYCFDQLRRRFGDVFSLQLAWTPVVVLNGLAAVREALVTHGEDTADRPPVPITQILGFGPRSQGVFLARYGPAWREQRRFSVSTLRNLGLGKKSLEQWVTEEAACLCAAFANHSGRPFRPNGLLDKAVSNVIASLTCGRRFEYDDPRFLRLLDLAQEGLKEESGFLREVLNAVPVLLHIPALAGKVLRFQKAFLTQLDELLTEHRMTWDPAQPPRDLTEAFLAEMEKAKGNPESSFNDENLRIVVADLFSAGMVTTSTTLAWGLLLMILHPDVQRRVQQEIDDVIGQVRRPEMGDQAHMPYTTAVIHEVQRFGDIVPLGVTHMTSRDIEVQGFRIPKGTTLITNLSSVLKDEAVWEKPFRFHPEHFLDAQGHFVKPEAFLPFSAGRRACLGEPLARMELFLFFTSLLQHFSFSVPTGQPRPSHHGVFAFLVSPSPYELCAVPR

[7] = pH 7.4; mean ± SD; Table 4; Yu et al.; cited from earlier work
[8] = i.v. administration in rat, 0.5 mg/kg; Yu et al.; cited from earlier work
[9] = human; Table 4; Yu et al.; cited from earlier work
[10] = mouse; Table 4; Yu et al.; cited from earlier work
[11] = Table 4; Yu et al.; cited from earlier work; remark: listed apart in the source
[12] = human; Table 4; Yu et al.; cited from earlier work; remark: listed apart in the source
[13] = mouse; Table 4; Yu et al.; cited from earlier work; remark: listed apart in the source
[14] = rat; Table 4; Yu et al.; cited from earlier work; remark: listed apart in the source
CYP1A2 [15] = target: T5, CYP1A2 (Homo sapiens, UniProt P05177); conditions: Table 4; Yu et al.; cited from earlier work
T5 sequence (P05177 1-516): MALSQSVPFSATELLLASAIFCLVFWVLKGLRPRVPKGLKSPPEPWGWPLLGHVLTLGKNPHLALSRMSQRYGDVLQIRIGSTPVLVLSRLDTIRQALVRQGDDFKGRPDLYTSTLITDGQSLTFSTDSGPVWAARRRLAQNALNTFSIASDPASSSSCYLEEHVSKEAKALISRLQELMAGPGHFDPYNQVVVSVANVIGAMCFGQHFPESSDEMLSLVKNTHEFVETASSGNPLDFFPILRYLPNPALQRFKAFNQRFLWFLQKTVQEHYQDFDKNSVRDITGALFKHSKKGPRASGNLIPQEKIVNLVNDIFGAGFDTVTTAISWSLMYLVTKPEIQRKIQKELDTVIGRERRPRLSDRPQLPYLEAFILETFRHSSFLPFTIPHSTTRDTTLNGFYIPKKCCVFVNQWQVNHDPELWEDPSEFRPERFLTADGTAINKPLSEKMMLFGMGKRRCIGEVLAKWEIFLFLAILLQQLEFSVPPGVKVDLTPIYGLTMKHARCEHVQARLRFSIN

CYP2C19 [16] = target: T1, CYP2C19; test: CYP2C19 inhibition; format: in vitro ADME; conditions: Table 4
[17] = test system: CCI-induced mechano-allodynia; test: Chronic constriction injury (CCI) mouse model of neuropathic pain; conditions: 10 μmol/kg, i.p., day 7 post-injury
CYP1A2 [18] = target: T5, CYP1A2; test: CYP1A2 inhibition; format: in vitro ADME; conditions: Table 4
[19] = Microsomal stability, mouse; format: in vitro ADME; conditions: Table 4
hP2Y14R = target: T6, hP2Y14R (Homo sapiens, UniProt Q15391); test: Inhibition of fluorescent antagonist binding in whole hP2Y14R-expressing CHO cells (flow cytometry); conditions: Table 2; tracer 2 (20 nM, 45 min), CHO cells; read-out: hP2Y14R, IC50
T6 construct: expressed in transfected cells; host or cells: CHO cells
T6 sequence (Q15391 1-338): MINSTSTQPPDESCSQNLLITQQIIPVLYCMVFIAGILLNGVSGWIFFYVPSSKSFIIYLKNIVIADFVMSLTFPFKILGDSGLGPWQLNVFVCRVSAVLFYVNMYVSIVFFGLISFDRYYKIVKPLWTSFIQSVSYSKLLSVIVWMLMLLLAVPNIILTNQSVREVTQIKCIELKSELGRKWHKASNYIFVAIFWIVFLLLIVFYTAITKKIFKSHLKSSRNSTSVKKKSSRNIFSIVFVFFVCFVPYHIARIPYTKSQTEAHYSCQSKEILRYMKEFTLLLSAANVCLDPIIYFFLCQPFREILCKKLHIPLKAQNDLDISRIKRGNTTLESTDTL

CYP2D6 [20] = target: T4, CYP2D6; test: CYP2D6 inhibition; format: in vitro ADME; conditions: Table 4
CYP3A4 [21] = target: T2, CYP3A4; test: CYP3A4 inhibition; format: in vitro ADME; conditions: Table 4
CYP2C9 [22] = target: T3, CYP2C9; test: CYP2C9 inhibition; conditions: read-out: CYP2C9 (IC50); Table 4
Plasma stability, mouse = conditions: Table 4
[23] = Microsomal stability, rat; format: in vitro ADME; conditions: Table 4
Plasma stability, rat = conditions: Table 4
[24] = Aqueous solubility, pION method; conditions: mean ± SD, Table 4
[25] = Pharmacokinetics in Wistar rats (i.v., i.p.)
hERG ion channel = hERG ion channel (Homo sapiens, UniProt Q12809); test: hERG ion channel block, patch clamp assay
Sequence of hERG ion channel (Q12809 whole entry): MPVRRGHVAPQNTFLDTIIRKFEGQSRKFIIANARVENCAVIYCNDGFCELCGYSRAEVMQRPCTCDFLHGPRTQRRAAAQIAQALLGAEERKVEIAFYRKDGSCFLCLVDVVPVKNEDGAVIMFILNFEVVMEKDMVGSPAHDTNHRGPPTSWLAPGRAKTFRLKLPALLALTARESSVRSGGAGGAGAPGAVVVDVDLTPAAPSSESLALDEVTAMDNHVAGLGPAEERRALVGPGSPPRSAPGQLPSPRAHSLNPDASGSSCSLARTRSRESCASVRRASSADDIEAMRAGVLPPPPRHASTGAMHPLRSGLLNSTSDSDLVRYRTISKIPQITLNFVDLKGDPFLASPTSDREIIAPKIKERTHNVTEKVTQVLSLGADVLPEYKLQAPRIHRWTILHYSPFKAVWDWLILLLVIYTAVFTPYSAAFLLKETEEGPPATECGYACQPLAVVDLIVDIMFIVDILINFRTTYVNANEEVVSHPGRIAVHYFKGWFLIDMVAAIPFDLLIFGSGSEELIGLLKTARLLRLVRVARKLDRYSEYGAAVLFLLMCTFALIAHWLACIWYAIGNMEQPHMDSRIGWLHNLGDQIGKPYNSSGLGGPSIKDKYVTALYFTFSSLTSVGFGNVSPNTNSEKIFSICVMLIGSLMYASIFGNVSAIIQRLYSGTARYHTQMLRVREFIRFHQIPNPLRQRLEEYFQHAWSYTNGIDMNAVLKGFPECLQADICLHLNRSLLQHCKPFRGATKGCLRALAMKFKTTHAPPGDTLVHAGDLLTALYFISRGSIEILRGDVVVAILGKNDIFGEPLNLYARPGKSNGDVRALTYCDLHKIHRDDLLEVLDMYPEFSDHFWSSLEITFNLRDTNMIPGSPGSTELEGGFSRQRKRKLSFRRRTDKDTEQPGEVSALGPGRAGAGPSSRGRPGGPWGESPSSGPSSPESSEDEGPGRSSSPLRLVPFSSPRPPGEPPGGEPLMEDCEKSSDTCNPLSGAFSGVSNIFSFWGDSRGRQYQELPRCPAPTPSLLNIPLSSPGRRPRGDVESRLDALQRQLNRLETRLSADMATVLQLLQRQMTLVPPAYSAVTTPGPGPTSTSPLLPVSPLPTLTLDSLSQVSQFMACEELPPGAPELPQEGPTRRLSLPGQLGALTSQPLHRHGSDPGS

mP2Y14R = target: T7, mP2Y14R (Mus musculus, UniProt Q9ESG6); test: cell-based
T7 sequence (Q9ESG6 1-338): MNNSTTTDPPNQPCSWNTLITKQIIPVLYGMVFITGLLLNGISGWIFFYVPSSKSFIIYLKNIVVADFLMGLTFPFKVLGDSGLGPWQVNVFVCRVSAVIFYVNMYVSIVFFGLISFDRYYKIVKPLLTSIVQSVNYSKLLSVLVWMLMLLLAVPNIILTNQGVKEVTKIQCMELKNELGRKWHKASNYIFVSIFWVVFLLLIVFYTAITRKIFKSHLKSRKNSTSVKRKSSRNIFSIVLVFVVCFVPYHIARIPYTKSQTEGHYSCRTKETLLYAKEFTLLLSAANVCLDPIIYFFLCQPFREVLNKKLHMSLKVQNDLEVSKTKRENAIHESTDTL
Text: Desirably, receptor affinity is maintained across species, facilitating performance in in vivo preclinical testing in small animals, with the mouse being the most commonly used species in initial evaluation.

[26] = Stability in simulated intestinal fluid; conditions: Table 4
in vivo = conditions: Wistar, rat, iv, 0.5 mg/kg
[27] = Microsomal stability, human; conditions: Table 4
[28] = Stability in simulated gastric fluid; conditions: Table 4

T2 sequence (P08684 whole entry): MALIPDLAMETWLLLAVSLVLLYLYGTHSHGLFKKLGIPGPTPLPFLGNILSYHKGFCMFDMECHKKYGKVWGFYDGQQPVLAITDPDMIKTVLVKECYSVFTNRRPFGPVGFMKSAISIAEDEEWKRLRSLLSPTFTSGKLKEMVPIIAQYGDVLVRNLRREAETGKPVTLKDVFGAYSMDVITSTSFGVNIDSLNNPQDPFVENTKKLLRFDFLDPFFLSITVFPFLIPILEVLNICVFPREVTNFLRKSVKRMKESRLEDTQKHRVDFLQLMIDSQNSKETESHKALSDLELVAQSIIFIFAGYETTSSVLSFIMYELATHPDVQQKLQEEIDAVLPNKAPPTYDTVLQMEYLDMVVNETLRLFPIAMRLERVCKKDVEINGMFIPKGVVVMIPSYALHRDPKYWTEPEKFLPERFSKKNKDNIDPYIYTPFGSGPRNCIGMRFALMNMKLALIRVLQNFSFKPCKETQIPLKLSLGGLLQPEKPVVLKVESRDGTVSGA
T1 sequence (P33261 whole entry): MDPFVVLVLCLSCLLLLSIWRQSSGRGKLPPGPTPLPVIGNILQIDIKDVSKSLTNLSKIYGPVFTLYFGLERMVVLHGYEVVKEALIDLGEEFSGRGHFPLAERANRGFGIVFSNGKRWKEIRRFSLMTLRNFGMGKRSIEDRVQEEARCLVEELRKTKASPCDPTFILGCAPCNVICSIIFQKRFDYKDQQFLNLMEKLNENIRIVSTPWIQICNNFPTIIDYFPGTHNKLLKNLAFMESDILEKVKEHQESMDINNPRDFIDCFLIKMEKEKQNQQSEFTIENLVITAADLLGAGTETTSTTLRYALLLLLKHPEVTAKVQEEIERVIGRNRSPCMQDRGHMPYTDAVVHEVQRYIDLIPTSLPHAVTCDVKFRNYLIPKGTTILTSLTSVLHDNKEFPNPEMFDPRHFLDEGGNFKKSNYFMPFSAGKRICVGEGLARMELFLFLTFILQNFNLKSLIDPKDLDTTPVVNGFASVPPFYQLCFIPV

NC(=O)c1ccc(-c2cc(C(=O)O)cc(-n3cc(-c4ccc(C(F)(F)F)cc4)nn3)c2)cc1 [Compound 5]
IC50 (CYP2C19 [1]): > 30 µM
Microsomal stability (t1/2, min) [2]: 108 min
IC50 (CYP3A4 [3]): > 30 µM
Simulated gastric fluid (t1/2, min) [4]: >240 min
IC50 (CYP2C9 [5]): > 30 µM
IC50 (CYP2D6 [6]): > 30 µM
aqueous solubility (pH 7.4, μg/mL) [7]: 138 ± 4 μg/mL
t1/2 [8]: 0.20 h
Plasma stability (t1/2, min) [9]: >240 (h); >240 (r); min
Microsomal stability (t1/2, min) [10]: 145 min
Simulated intestinal fluid (t1/2, min) [11]: >240 min
Microsomal stability (t1/2, min) [12]: 145 (h) min
Plasma stability (t1/2, min) [13]: >240 (m) min
Plasma stability (t1/2, min) [14]: >240 (h); >240 (r); min
IC50 (CYP1A2 [15]): > 30 µM

O=C(O)c1cc(-c2ccc(-c3cc(CO)on3)cc2)c2ccc(-c3ccc(C(F)(F)F)cc3)cc2c1 [Compound 32, 4-(4-(5-(Hydroxymethyl)isoxazol-3-yl)phenyl)-7-(4-(trifluoromethyl)phenyl)-2-naphthoic acid]
IC50 (CYP2C19 [16]): > 30 µM
reversal of mechano-allodynia (figure legend) [17]: reversal of CCI-induced mechano-allodynia
IC50 (CYP1A2 [18]): > 30 µM
Microsomal stability (t1/2, min) [19]: >240 (m) min
IC50 (hP2Y14R): 0.015 ± 0.0044 µM
IC50 (CYP2D6 [20]): > 30 µM
IC50 (CYP3A4 [21]): > 30 µM
IC50 (CYP2C9 [22]): 10.4 µM
Plasma stability (t1/2, min) (Plasma stability, mouse): >240 (m) min
Microsomal stability (t1/2, min) [23]: 47.7 min
Plasma stability (t1/2, min) (Plasma stability, rat): TBD (h); >240 (r); min
aqueous solubility (pH 4.0, μg/mL) ([24]; pH 4.0): 0.14 ± 0.02 μg/mL
aqueous solubility (pH 7.4, μg/mL) ([24]; pH 7.4): 7.63 ± 1.93 μg/mL
t1/2 ([25]; i.v. administration in rat, 0.5 mg/kg, Table 4): 0.689 h
AUC0-last ([25]; rat, i.p., 1.0 mg/kg): 0.65 µg·h/mL
AUC0-∞ ([25]; rat, i.p., 1.0 mg/kg): 0.7 µg·h/mL
Cl ([25]; rat, i.p., 1.0 mg/kg): 1.43 L/h/kg
Cmax ([25]; rat, i.p., 1.0 mg/kg): 0.0884 µg/mL
F (%) ([25]; rat, i.p., 1.0 mg/kg): 139%
Kel ([25]; rat, i.p., 1.0 mg/kg): 0.096 h⁻¹
T1/2 ([25]; rat, i.p., 1.0 mg/kg): 7.23 h
Vd (mL/kg) ([25]; rat, i.p., 1.0 mg/kg): 14,900 mL/kg
AUC0-last ([25]; rat, i.p., 3.0 mg/kg): 2.06 µg·h/mL
AUC0-∞ ([25]; rat, i.p., 3.0 mg/kg): 2.12 µg·h/mL
Cl ([25]; rat, i.p., 3.0 mg/kg): 1.42 L/h/kg
Cmax ([25]; rat, i.p., 3.0 mg/kg): 0.315 µg/mL
F (%) ([25]; rat, i.p., 3.0 mg/kg): 147%
Kel ([25]; rat, i.p., 3.0 mg/kg): 0.148 h⁻¹
T1/2 ([25]; rat, i.p., 3.0 mg/kg): 4.68 h
Vd ([25]; rat, i.p., 3.0 mg/kg): 9.57 L/kg
AUC0-last ([25]; rat, i.p., 10 mg/kg): 4.9 µg·h/mL
AUC0-∞ ([25]; rat, i.p., 10 mg/kg): 4.92 µg·h/mL
Cl ([25]; rat, i.p., 10 mg/kg): 2.03 L/h/kg
Cmax ([25]; rat, i.p., 10 mg/kg): 0.786 µg/mL
F (%) ([25]; rat, i.p., 10 mg/kg): 105%
Kel ([25]; rat, i.p., 10 mg/kg): 0.233 h⁻¹
T1/2 ([25]; rat, i.p., 10 mg/kg): 2.98 h
Vd ([25]; rat, i.p., 10 mg/kg): 8.73 L/kg
AUC0-last ([25]; rat, i.v., 0.5 mg/kg): 0.234 µg·h/mL
AUC0-∞ ([25]; rat, i.v., 0.5 mg/kg): 0.238 µg·h/mL
Cl ([25]; rat, i.v., 0.5 mg/kg): 2.11 L/h/kg
Cmax ([25]; rat, i.v., 0.5 mg/kg): 0.359 µg/mL
Kel ([25]; rat, i.v., 0.5 mg/kg): 1.01 h⁻¹
T1/2 ([25]; rat, i.v., 0.5 mg/kg): 0.689 h
Vd ([25]; rat, i.v., 0.5 mg/kg): 2.09 L/kg
IC50 (hERG ion channel): > 30 µM
affinity at the mP2Y14R vs the human homologue (mP2Y14R; comparison of species, in words): nearly the same affinity in the two species
IC50 (mP2Y14R; read-out: mP2Y14R, IC50, Table 2, tracer 2 (20 nM, 45 min), HEK293 cells): 0.0186 ± 0.0084 µM
Simulated intestinal fluid (t1/2, min) [26]: >240 min
bioavailability (in vivo): 100%
Microsomal stability (t1/2, min) [27]: > 240 min
Simulated gastric fluid (t1/2, min) [28]: 161 min

— patent publication US20240150290A1, “HETEROCYCLIC P2Y14 RECEPTOR ANTAGONISTS” (priority 2021, published 2024)
